In patent US4751235A, “Anti-atherosclerotic indolizine derivatives” (Sandoz Pharm. Corp., priority 1986, dated 1988):
Counter-ions that a name gives are not always drawn.

How the values were obtained:
[1] = test system: 3 β-hydroxysterol synthesis; test: Test B. In Vivo Cholesterol Biosynthesis Inhibition Test; settings: Rattus norvegicus, rats, oral administration, read-out: ED50 (dose producing 50% inhibition of 3 β-hydroxysterol synthesis)
Experimental: Test B. In Vivo Cholesterol Biosynthesis Inhibition Test: This test is also known and is carried out as described on pages 60-61 of said application Ser. No. 06/741,903 and on page 33 of World (PCT) Published Patent Application No. 84/02131, both of which are hereby incorporated by reference as if set forth herein in their entirety.

[2] = target: T1, HMG-CoA reductase (Rattus norvegicus, UniProt P51639); test: Test A. In Vitro Microsomal Assay of HMG-CoA Reductase Inhibition; format: biochemical; settings: read-out: IC50 (concentration producing 50% inhibition of HMG-CoA reductase activity)
T1 construct: from tissue; host or cells: microsomes (printed); rat liver by own knowledge of the cited method
T1 sequence (P51639 1-887): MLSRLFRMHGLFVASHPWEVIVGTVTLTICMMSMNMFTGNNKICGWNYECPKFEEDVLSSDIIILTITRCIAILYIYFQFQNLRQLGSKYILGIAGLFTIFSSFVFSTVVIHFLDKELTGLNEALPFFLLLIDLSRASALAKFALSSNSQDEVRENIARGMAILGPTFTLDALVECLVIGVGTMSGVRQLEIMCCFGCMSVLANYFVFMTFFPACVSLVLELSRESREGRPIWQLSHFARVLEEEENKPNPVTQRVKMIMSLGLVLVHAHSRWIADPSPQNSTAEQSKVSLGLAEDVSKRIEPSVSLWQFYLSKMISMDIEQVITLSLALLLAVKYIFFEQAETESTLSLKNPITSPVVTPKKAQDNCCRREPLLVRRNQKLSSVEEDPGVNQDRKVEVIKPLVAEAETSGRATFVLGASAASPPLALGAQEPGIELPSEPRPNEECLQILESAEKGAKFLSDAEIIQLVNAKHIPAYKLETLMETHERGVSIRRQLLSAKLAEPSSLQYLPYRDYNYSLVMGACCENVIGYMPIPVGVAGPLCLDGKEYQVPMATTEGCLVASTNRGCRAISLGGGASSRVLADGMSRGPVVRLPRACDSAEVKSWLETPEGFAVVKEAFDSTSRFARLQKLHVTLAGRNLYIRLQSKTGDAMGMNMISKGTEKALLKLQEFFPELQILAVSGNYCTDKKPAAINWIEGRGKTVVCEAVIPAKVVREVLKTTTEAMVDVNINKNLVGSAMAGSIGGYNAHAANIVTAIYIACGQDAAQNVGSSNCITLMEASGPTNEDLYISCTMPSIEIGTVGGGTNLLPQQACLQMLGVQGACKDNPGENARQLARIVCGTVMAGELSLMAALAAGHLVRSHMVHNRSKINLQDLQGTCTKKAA
Experimental: Test A. In Vitro Microsomal Assay of HMG-CoA Reductase Inhibition:
This test is known and is carried out as described on pages 59-60 of application Ser. No. 06/741,903 (filed June 6, 1985) and on page 30 of World (PCT) Published Patent Application No. 84/02131 both of which are hereby incorporated by reference as if set forth herein in their entirety. The concentration of the test substance (compound of Formula I) in the assay system is 0.0005-2,000 μmolar. The obtained IC50 is the concentration of the test substance in the assay system observed or calculated to produce a 50% inhibition of HMG-CoA reductase activity.

| IC50 [2] | Compound | ED50 [1] |
| --- | --- | --- |
| – | CC[C@H](C)C(=O)O[C@H]1CCC=C2C=C[C@H](C)[C@H](CC[C@@H]3C[C@@H](O)CC(=O)O3)[C@H]21 [Compactin] | 3.5 mg/kg |
| – | CC[C@H](C)C(=O)O[C@H]1C[C@@H](C)C=C2C=C[C@H](C)[C@H](CC[C@@H]3C[C@@H](O)CC(=O)O3)[C@H]21 [Mevinolin] | 0.41 mg/kg |
| 11 nM | CC(C)c1c(/C=C/[C@@H](O)C[C@@H](O)CC(=O)O)c(-c2ccc(F)cc2)n2ccccc12 (relative stereo) [Example 2, 7-[3-(4-fluorophenyl)-1-(1-methylethyl)-2-indolizinyl]-3,5,-dihydroxy-6-heptenoic acid, sodium salt (trans)] | – |
| – | CCOC(=O)C[C@H](O)C[C@H](O)/C=C/c1c(C(C)C)c2ccccn2c1-c1ccc(F)cc1 (relative stereo) [Example 1, 7-[3-(4-fluorophenyl)-1-(1-methylethyl)-2-indolizinyl]-3,5,-dihydroxy-6-heptenoic acid, ethyl ester (trans)] | 0.05 mg/kg |
